From ChEMBL document CHEMBL1201862, “PubChem BioAssay data set” (2004)
Active and inactive are the calls of the source.

Key:
Vero [1] = experiment: Vero cell viability after compound exposure – synthesized analogs, set II, cytotoxicity control for West Nile virus antiviral project, SAR follow-up (AID 2402); type: functional; conditions: Chlorocebus sabaeus
[2] = A Cell Based Assay for the Identification of Probe candidate Compounds with Anti- Venezuelan Equine Encephalitis virus. [Related pubchem assays: 2409, 2419, 1621, 2238, 2405, 2024, 2065, 2402, 2414, 1635, 1650, 2244 ]; type: functional
Vero [3] = experiment: antiviral protection of cells from WNV – synthesized analogs, SAR follow-up (AID 2238); type: functional, cell-based; conditions: Chlorocebus sabaeus
Vero [4] = experiment: host cell viability loss, Vero E6 – synthesized analogs, cytotoxicity control for West Nile virus antiviral project, SAR follow-up (AID 2244); type: functional; conditions: Chlorocebus sabaeus
Vero [5] = experiment: inhibition of WNV-induced cytopathic effect – cell-based, CPE readout (AID 1621); type: functional; conditions: Chlorocebus sabaeus
Vero [6] = experiment: Vero 76 cell viability after compound exposure – Vero 76 cells, synthesized analogs, cytotoxicity control for West Nile virus antiviral project, SAR follow-up (AID 2414); type: functional; conditions: Chlorocebus sabaeus
Vero [7] = experiment: antiviral activity against WNV, CPE read-out – cell-based (AID 2419); type: functional; conditions: Chlorocebus sabaeus
[8] = biological target: T1, Apoptotic protease-activating factor 1 (Homo sapiens, UniProt O14727); type: functional
T1 sequence (O14727 whole entry): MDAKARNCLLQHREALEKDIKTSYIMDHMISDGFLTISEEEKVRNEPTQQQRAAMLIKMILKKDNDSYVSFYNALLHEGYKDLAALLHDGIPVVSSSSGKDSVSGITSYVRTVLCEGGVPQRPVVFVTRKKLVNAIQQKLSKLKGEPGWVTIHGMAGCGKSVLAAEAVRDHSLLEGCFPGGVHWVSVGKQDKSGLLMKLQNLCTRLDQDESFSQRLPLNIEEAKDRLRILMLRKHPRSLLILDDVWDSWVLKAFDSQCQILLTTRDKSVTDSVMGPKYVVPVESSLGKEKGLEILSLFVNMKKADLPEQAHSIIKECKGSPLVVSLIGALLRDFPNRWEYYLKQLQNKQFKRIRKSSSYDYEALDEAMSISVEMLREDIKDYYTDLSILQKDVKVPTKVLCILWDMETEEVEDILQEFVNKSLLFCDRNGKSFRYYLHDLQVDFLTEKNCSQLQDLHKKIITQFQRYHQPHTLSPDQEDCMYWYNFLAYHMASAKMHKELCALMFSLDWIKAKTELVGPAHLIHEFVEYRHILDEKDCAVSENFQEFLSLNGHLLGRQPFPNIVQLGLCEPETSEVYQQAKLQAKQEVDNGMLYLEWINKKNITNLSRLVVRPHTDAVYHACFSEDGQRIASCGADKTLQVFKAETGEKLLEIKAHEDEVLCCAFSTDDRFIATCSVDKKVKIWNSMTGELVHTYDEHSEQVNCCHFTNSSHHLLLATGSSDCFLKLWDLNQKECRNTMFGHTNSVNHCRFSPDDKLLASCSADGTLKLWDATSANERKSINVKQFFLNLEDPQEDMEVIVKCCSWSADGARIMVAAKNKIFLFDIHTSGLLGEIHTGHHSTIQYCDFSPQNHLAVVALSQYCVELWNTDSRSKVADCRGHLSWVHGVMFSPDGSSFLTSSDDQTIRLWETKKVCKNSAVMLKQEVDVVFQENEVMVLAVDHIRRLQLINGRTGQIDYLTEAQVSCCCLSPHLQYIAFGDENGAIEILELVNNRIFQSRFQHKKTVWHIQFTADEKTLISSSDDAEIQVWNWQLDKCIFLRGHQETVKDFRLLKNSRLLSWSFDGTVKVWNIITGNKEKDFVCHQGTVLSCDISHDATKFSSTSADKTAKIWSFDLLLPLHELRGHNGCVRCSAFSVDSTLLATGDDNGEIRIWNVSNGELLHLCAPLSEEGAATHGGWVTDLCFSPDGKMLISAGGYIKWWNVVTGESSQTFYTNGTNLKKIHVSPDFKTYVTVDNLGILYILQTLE

[9] = HepG2 cell cytotoxicity, dose response, cytotoxicity control for non-replicating M. tuberculosis project (AID 489018); type: functional; conditions: Mycobacterium tuberculosis
cells = type: functional
[10] = THP-1 cell cytotoxicity, dose response, cytotoxicity control for non-replicating M. tuberculosis project (AID 489025); type: functional
Nonstructural protein 1 = Nonstructural protein 1 (Influenza A virus, UniProt Q194T2); type: functional, Influenza A virus (A/California/07/2009(H1N1))
Sequence of Nonstructural protein 1 (Q194T2 whole entry): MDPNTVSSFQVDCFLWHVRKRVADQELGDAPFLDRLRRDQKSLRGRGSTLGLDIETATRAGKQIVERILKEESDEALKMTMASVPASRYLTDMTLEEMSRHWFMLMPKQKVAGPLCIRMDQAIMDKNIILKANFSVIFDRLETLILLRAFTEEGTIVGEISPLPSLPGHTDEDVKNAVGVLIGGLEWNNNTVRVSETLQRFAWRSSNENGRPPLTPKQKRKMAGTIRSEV

[11] = Vero E6 cell cytotoxicity, dose response, cytotoxicity control for non-replicating M. tuberculosis project, secondary assay (AID 492998); type: functional, VeroE6; conditions: Vero C1008
[12] = biological target: T2, Replicative DNA helicase DnaB (Mycobacterium tuberculosis, UniProt P9WMR3); experiment: DnaB intein splicing inhibitors, dose response, biochemical, cell-free fluorescence (AID 449749); type: functional
T2 sequence (P9WMR3 whole entry): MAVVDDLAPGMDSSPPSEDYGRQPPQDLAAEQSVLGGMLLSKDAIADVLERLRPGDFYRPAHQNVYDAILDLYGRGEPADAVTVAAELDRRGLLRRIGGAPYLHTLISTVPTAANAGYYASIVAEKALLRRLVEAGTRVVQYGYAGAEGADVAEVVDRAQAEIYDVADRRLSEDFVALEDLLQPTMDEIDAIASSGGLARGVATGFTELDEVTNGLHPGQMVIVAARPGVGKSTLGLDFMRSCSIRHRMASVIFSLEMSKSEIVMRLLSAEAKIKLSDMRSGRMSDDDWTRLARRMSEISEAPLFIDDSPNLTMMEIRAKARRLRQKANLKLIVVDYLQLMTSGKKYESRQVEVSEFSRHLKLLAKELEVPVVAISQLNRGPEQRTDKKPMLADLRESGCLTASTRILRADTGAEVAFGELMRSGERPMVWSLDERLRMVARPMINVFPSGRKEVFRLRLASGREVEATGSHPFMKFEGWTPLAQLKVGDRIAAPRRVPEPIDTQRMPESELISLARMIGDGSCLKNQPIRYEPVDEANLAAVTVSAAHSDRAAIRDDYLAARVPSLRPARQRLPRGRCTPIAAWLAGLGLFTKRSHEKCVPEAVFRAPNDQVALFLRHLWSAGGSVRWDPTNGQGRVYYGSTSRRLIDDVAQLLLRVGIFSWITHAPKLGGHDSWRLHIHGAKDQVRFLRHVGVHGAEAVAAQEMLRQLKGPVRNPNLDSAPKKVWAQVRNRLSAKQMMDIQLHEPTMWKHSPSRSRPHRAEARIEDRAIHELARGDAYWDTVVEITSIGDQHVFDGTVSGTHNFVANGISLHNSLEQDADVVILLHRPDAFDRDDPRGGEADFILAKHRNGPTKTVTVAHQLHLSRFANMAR

Protein RecA = biological target: T3, Protein RecA (Mycobacterium tuberculosis, UniProt P9WHJ3); experiment: Fluorescence Cell-Free Homogeneous Dose Retest to Identify Inhibitors of RecA-Intein Splicing Activity. [Related pubchem assays (depositor defined):AID2097, AID2223, AID489010, AID492950]; type: functional
T3 sequence (P9WHJ3 whole entry): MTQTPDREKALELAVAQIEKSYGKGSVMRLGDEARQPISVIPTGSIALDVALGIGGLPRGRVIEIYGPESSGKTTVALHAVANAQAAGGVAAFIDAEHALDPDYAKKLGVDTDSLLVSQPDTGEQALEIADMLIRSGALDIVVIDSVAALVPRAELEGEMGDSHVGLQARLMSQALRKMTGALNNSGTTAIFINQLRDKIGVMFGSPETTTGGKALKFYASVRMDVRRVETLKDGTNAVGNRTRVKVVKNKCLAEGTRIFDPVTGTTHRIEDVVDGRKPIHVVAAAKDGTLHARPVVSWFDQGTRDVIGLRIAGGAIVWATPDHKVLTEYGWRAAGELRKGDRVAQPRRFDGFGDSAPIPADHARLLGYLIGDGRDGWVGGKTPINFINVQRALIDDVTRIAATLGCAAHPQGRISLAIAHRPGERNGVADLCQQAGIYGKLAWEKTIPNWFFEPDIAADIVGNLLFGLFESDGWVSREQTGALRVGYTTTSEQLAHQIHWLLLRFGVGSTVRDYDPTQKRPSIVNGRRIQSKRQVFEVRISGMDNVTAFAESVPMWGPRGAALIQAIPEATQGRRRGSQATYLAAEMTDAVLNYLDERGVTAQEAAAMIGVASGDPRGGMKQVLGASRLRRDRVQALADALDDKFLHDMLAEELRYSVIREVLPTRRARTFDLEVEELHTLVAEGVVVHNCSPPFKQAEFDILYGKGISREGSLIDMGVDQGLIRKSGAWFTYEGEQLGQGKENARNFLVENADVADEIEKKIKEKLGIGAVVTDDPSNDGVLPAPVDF

[13] = biological target: T4, Ubiquitin-conjugating enzyme E2 N (Homo sapiens, UniProt P61088); type: functional;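 also: Dose-response confirmation in a TR-FRET assay detecting UBC13-driven polyubiquitin chain formation, inhibition measured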
T4 sequence (P61088 whole entry): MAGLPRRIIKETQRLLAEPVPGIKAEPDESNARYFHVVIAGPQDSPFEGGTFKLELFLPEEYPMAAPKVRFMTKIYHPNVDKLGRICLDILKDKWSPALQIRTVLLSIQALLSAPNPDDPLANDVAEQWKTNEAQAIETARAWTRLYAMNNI

[14] = biological target: Voltage-dependent T-type calcium channel subunit alpha-1H (Homo sapiens, UniProt O95180); experiment: human CACNA1H calcium influx blockade – cell-based, synthetic library set 1, calcium flux (AID 493022); type: functional
Sequence of Voltage-dependent T-type calcium channel subunit alpha-1H (O95180 whole entry): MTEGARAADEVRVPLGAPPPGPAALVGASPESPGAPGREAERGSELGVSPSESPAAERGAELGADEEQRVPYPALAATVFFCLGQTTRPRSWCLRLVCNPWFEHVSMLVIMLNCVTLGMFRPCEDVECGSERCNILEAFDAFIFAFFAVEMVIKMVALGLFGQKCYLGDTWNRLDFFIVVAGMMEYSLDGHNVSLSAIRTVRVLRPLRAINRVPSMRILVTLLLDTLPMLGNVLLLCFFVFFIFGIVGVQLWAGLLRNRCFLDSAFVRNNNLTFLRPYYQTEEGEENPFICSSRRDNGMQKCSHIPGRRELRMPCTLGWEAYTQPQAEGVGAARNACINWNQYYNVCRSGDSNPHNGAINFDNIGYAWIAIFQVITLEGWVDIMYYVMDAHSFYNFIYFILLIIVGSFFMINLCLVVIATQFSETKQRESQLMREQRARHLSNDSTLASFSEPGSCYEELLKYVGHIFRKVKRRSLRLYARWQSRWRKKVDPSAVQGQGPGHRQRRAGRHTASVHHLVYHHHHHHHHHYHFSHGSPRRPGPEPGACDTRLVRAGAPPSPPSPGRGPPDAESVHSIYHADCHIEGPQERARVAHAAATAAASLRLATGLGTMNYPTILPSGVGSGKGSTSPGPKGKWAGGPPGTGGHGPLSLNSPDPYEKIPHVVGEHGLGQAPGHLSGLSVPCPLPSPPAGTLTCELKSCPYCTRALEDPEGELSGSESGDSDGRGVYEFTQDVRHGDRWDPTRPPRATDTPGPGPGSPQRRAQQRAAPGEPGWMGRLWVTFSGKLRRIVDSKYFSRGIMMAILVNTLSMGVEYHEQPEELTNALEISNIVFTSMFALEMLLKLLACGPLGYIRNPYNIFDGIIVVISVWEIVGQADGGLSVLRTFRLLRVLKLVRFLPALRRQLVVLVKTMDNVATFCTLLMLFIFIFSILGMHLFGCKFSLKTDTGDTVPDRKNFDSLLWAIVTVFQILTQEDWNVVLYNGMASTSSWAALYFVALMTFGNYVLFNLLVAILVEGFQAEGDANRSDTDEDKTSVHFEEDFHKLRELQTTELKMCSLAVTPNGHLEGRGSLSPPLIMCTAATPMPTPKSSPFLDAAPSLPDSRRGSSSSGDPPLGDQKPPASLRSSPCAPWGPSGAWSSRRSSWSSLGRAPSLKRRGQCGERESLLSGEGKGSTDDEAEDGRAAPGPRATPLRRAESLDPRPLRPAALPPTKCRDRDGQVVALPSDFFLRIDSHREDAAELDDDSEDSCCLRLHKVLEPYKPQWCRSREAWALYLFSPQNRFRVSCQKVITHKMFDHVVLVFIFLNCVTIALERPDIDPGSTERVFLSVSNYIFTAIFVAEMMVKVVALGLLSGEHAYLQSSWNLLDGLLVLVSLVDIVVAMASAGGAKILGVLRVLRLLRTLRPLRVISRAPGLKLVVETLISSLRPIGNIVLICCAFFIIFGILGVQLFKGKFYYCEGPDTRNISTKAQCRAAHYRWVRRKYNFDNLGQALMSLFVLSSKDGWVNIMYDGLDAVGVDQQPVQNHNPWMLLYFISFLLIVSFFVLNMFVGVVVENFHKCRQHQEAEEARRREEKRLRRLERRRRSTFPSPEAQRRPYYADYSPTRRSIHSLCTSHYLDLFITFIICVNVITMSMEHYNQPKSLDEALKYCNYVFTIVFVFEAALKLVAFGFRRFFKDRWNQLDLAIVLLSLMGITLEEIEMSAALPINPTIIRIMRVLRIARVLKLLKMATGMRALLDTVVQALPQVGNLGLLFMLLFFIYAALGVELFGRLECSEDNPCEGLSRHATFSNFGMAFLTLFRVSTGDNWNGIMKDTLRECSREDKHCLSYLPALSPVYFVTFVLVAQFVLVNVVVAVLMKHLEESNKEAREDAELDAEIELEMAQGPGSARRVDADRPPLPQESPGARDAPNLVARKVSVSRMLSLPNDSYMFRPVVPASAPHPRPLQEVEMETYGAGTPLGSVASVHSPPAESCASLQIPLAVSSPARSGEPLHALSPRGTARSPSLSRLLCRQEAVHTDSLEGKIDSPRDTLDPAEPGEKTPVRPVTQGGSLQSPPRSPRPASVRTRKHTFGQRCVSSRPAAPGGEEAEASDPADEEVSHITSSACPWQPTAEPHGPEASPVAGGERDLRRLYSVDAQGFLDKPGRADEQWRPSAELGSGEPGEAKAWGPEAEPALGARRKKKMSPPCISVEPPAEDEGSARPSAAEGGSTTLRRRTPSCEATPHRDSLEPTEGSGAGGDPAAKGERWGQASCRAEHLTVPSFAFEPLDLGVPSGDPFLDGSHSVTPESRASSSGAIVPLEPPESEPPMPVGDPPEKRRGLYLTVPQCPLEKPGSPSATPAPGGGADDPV

SUMO-activating enzyme [15] = biological target: T5, SUMO-activating enzyme (Homo sapiens, UniProt Q9UBT2); experiment: blockers of UBC9-mediated SUMO conjugation – biochemical, AlphaScreen, SUMOylation inhibitor project, confirmation (AID 2018); type: functional
T5 sequence (Q9UBE0 whole entry): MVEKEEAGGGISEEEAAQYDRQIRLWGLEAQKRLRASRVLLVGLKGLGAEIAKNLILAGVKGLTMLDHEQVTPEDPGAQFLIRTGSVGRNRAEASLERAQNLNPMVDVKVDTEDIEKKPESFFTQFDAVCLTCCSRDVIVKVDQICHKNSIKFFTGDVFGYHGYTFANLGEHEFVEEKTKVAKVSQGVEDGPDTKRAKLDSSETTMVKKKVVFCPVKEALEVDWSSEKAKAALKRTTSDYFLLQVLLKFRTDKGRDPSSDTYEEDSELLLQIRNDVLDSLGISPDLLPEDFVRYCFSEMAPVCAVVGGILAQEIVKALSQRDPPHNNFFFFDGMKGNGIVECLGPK
T5 sequence (Q9UBT2 whole entry): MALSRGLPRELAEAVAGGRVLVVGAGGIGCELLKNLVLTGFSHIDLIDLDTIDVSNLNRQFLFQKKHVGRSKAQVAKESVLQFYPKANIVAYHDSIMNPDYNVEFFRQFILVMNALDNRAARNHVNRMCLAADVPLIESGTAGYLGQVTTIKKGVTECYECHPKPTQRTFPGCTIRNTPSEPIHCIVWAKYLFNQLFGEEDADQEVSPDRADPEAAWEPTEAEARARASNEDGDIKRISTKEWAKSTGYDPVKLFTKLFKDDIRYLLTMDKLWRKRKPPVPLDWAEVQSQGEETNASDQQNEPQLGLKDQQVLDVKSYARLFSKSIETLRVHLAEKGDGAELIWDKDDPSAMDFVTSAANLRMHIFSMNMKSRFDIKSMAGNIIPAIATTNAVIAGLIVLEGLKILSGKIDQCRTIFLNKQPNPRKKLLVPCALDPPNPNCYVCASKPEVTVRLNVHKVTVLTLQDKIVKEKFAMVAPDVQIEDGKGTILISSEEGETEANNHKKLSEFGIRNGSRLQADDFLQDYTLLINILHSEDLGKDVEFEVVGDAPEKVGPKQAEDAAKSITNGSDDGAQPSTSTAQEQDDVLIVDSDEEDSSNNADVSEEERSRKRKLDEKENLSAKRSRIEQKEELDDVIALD

[16] = test system: Streptococcus sp. 'group A'; experiment: Streptococcus pyogenes SK(-)GAS viability under kanamycin – luminescence, BacTiterGlo, confirmation, counter-screen for streptokinase expression inhibitor project, dose response (AID 1900); type: functional, organism-based
SUMO-activating enzyme [17] = biological target: T5, SUMO-activating enzyme; experiment: blockers of SAE1/SAE2–UBC9 SUMO transfer – biochemical, HTRF, uHTS, primary screen (AID 2006); type: protein-complex assay
Streptococcus = experiment: GAS UMAA2166 growth inhibition – luminescence, BacTiterGlo, counter-screen for streptokinase expression inhibitor project, dose response (AID 1915); type: functional, organism-based;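 also: potency for reduction of bacterial viability or growth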
[18] = biological target: Delta-type opioid receptor (Homo sapiens, UniProt P41143); experiment: SAR Analysis of Antagonists of the DOR Receptor using an Image-Based Assay - Set 3. [Related pubchem assays (depositor defined):AID1777, AID1785]; type: functional;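 also: U2OS cells expressing DOR1 and beta-arrestin GFP stimulated with 100 nM SNC80; imaging of GFP-tagged beta-arrestin moving into spots after receptor activation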
Sequence of Delta-type opioid receptor (P41143 whole entry): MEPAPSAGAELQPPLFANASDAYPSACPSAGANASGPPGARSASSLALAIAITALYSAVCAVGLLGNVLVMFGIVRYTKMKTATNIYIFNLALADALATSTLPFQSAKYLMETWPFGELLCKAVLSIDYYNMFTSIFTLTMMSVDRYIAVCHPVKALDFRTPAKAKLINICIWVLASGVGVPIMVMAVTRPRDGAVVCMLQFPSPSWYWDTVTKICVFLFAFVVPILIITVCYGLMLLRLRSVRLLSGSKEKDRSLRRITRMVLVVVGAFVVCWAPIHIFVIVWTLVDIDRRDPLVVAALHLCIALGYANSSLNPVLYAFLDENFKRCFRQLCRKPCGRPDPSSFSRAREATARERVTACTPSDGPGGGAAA

Mu-type opioid receptor = Mu-type opioid receptor (Homo sapiens, UniProt P35372); experiment: SAR Analysis of Antagonists of the MOR Receptor using an Image-Based Assay - Set 3. [Related pubchem assays (depositor defined):AID1777, AID1785, AID1786, AID1966, AID2133, AID2136, AID2284, AID2285, AID2420]; type: functional
Sequence of Mu-type opioid receptor (P35372 whole entry): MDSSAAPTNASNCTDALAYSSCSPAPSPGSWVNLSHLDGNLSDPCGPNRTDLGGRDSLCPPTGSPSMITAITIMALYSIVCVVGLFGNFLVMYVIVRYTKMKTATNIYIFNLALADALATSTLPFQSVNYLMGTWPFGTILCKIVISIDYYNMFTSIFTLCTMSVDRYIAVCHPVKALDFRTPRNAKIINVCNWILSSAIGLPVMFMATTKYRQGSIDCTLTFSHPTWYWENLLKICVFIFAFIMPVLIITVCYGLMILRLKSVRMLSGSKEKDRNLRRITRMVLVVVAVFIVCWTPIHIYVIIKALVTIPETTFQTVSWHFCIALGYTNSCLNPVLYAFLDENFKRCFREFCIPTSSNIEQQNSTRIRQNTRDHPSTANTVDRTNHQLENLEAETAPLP

[19] = biological target: T6, Kappa-type opioid receptor (Homo sapiens, UniProt P41145); experiment: SAR analysis of small molecule antagonists of the kappa opioid receptor via a luminescent beta-arrestin assay - Set 4. [Related pubchem assays (depositor defined):AID1777, AID1778, AID1785, AID1786, AID1966, AID2133, AID2136, AID2285]; type: functional
T6 sequence (P41145 whole entry): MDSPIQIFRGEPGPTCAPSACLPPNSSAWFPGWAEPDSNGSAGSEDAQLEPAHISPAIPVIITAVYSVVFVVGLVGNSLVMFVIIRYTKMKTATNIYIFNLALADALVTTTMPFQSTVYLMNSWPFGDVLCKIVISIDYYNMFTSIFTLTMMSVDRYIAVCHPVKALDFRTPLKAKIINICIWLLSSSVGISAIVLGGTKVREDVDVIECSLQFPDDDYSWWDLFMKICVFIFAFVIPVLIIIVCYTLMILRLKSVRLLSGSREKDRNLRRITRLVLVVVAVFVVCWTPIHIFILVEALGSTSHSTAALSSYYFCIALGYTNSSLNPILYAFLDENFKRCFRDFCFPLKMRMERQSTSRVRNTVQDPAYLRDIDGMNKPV

[20] = biological target: T6, Kappa-type opioid receptor; experiment: SAR analysis of Antagonists of the Kappa Opioid Receptor (KOR) using an Image-Based Assay - Set 4. [Related pubchem assays (depositor defined):AID1777, AID1785]; type: functional
[21] = biological target: T6, Kappa-type opioid receptor; experiment: SAR analysis of small molecule antagonists of the kappa opioid receptor via a luminescent beta-arrestin assay - Set 6. [Related pubchem assays (depositor defined):AID1777, AID1778, AID1785, AID1786, AID1966, AID2133, AID2136, AID2285]; type: functional

In the case of `CCOC(=O)C1(Cc2ccccc2C(F)(F)F)CCN(C2CCN(C(C)C)CC2)CC1`, the CC50 (Vero [1]) is reported as 31.5 µM (active), the IC50 [2] is reported as 6.36 µM (active) and the IC50 (Vero [3]) is reported as 36.5 µM (active). For the same compound, the CC50 (Vero [4]) was 21.6 µM (active), the IC50 (Vero [5]) was 18.6 µM (active) and the CC50 (Vero [6]) was > 133 µM (active). For the same compound, the IC50 (Vero [7]) was > 50 µM (active).
For `CCOC(=O)C1=C(c2ccccc2)N=C(N)NC1c1ccc(OCc2ccc(C(=O)OC)cc2)cc1` (stereo unspecified), the IC50 [8] was 26.8 µM (active), the CC50 [9] was > 20 µM (active) and the IC50 (cells) was 9.88 µM (active). For the same compound, the CC50 [10] was 11.8 µM (active), the IC50 (Nonstructural protein 1) was 62.3 µM (active) and the CC50 [11] was 18.2 µM (active). For the same compound, the AC50 [12] was 15.6 µM (active), the EC50 (Protein RecA) was 11.8 µM (active) and the IC50 [13] was > 20 µM (inactive).
For `O=C(COc1ccc(Cl)cc1)Nc1nnc(-c2ccc3c(c2)CCCC3)o1`, the EC50 [14] was 2.8 µM (active), the IC50 (SUMO-activating enzyme [15]) was > 100 µM (inactive) and the EC50 [16] was 0.489 µM (active). For the same compound, the IC50 (SUMO-activating enzyme [17]) was 48.2 µM (active) and the EC50 (Streptococcus) was 1.83 µM (active).
For `Cc1ccc(S(=O)(=O)NCc2ccc(C(=O)NCCN3CCN(c4ccccc4)CC3)cc2)cc1`, the IC50 [18] was > 32 µM (inactive), the IC50 (Mu-type opioid receptor) was > 32 µM (inactive) and the IC50 [19] was > 20 µM (inactive). The IC50 [20] was > 32 µM (inactive) and the IC50 [21] was > 20 µM (inactive).
